According to patent US20090304692A1, “TRIAZINE COMPOUNDS AS PI3 KINASE AND MTOR INHIBITORS” (Wyeth, priority 2008, published 2009):
Several values for one entry are separate records, joined by “and”; a condition that tells them apart may be missing. Equal entries are not always repeated. Where two headings read alike, the source gives them in different places.

Key:
Human mTOR (FLAG-TOR) = Human mTOR (FLAG-TOR) (Homo sapiens, UniProt P42345); experiment: mTOR kinase assay (DELFIA format, purified enzyme); format: biochemical; details: read-out: IC50 mTOR
[1] = tested on: human prostate PC3-mm2 tumor cell line; experiment: In vitro cell culture growth assay (MTS), PC3-mm2; format: cell-based
PI3K-α = PI3K-α (Homo sapiens, UniProt P42336); experiment: PI3K-alpha fluorescence polarization assay; details: read-out: IC50 PI3Kα
PI3K-γ = PI3K-γ (Homo sapiens, UniProt P48736); experiment: PI3K-gamma fluorescence polarization assay; details: read-out: IC50 PI3Kγ
[2] = Homo sapiens, PC3MM2, 72 h, MTS cell growth assay, three days after drug treatment, read-out: IC50 PC3-mm2
[3] = Homo sapiens, PC3MM2, 72 h, MTS cell growth assay, three days after drug treatment, PC3-mm2 cells, read-out: IC50 PC3-mm2

Sequence of Human mTOR (FLAG-TOR) (P42345 1360-2549 limits assumed): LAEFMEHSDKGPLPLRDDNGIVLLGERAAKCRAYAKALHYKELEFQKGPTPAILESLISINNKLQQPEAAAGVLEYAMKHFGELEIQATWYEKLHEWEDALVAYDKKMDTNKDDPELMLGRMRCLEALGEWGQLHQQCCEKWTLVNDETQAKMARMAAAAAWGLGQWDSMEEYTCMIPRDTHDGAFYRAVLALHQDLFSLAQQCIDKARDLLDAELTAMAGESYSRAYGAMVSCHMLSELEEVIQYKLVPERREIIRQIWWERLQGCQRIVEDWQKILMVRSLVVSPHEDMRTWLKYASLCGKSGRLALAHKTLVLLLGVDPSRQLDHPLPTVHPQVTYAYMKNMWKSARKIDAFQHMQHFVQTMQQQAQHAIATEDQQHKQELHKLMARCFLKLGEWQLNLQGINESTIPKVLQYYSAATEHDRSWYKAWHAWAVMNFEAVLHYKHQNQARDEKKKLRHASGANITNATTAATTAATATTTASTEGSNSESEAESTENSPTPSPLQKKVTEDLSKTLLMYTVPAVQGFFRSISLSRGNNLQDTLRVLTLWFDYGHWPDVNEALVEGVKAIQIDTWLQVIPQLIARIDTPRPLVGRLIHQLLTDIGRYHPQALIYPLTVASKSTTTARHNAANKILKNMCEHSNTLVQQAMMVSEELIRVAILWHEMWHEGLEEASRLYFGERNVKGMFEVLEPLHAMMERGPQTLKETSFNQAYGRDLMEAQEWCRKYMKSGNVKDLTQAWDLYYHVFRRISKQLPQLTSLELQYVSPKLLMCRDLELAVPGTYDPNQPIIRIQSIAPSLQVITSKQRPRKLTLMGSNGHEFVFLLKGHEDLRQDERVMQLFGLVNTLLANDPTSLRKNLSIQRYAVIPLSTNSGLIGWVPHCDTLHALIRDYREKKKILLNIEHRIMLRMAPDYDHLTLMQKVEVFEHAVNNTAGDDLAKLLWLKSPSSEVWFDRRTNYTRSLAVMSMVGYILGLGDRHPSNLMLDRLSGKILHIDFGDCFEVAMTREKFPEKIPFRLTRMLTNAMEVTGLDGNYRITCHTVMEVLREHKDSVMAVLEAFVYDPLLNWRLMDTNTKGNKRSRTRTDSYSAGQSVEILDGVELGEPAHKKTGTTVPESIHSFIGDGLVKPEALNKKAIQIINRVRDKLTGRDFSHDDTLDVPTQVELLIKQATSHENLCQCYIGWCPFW
Sequence of PI3K-γ (P48736 whole entry, species assumed): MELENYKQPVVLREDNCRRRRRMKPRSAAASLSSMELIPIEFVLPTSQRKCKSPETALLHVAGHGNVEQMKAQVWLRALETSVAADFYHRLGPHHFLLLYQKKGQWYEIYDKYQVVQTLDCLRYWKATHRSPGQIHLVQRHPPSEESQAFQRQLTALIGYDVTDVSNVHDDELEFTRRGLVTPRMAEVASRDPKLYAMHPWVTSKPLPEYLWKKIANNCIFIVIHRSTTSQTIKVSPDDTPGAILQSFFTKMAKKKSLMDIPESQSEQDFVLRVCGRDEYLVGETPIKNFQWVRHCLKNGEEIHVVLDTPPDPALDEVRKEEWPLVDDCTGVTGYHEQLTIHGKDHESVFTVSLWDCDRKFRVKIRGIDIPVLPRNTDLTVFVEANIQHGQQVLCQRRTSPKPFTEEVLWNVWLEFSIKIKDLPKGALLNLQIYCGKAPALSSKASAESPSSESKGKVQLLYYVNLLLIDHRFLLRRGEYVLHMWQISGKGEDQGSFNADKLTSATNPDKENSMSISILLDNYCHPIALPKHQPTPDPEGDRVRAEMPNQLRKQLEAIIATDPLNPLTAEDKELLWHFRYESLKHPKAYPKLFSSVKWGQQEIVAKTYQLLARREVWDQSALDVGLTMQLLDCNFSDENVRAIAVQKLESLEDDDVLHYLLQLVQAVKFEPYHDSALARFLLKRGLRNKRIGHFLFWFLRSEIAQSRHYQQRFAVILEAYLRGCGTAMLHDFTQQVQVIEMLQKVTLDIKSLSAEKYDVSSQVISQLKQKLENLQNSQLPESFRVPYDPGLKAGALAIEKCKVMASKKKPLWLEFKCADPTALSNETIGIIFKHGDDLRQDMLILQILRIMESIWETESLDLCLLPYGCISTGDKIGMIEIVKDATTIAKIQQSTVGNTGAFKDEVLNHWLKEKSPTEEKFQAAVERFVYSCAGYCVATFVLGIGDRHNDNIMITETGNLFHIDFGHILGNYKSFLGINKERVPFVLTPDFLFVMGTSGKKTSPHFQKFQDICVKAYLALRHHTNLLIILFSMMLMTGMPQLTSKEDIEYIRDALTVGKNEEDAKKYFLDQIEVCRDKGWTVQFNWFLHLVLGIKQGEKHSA
Sequence of PI3K-α (P42336 whole entry, species assumed): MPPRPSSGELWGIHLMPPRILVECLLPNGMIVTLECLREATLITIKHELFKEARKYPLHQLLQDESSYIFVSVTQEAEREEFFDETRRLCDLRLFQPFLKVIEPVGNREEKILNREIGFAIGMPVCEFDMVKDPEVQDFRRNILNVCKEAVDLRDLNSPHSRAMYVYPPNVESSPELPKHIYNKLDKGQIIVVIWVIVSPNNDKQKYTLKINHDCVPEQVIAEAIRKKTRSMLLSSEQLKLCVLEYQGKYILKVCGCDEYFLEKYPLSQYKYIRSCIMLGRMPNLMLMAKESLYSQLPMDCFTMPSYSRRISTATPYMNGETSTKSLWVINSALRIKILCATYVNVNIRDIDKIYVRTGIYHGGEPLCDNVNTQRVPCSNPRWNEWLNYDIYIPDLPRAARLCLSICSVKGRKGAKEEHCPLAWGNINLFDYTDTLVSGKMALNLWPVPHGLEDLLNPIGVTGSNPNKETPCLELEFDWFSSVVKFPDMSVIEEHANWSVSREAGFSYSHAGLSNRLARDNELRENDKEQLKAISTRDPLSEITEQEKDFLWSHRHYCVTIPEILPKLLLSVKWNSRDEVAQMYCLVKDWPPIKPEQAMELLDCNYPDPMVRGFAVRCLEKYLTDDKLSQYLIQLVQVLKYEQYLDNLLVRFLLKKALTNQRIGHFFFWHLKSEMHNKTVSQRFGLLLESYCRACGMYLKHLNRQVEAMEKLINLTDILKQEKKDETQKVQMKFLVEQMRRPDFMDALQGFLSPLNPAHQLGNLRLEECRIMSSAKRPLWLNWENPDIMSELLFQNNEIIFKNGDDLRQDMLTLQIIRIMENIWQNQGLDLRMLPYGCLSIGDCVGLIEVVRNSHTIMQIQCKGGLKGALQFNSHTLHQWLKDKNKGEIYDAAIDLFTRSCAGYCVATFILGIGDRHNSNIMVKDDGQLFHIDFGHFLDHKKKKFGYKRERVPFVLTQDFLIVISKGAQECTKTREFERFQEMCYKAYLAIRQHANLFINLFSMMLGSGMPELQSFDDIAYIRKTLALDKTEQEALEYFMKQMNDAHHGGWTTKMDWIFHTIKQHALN
Sequence of PI3K-α (P27986 whole entry partner, species assumed): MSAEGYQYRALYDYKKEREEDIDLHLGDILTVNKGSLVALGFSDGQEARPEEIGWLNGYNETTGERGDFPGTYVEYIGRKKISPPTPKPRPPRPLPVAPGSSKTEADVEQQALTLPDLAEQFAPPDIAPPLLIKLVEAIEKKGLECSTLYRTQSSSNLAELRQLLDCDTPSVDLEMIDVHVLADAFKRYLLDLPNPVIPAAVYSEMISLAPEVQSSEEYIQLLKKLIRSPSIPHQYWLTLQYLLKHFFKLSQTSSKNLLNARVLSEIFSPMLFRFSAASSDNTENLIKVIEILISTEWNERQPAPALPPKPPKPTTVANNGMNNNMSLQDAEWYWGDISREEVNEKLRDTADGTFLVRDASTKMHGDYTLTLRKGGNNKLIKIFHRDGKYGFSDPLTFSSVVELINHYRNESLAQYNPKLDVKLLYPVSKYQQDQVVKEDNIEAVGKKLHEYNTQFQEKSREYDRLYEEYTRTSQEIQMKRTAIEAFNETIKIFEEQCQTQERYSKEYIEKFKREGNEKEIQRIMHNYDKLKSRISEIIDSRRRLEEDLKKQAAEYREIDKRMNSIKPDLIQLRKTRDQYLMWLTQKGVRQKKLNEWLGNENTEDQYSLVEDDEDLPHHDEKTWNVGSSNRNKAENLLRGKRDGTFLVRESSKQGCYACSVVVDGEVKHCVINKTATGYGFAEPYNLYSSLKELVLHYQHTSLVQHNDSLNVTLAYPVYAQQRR

Compound	IC50 (Human mTOR (FLAG-TOR))	IC50 ([1]; MTS cell growth assay, three days after drug treatment, PC3-mm2 cells, read-out: IC50 PC3-mm2) [nM]	IC50 (PI3K-α) [nM]	IC50 (PI3K-γ) [nM]	IC50 ([1]; Homo sapiens, PC3MM2, 72 h, read-out: IC50 PC3-mm2, MTS cell growth assay, three days after drug treatment) [nM]	IC50 [1, 2] [nM]	IC50 [1, 3] [nM]	IC50 (PI3K-α; listed as 486) [nM]	IC50 (PI3K-α; listed as 828) [nM]
1-(4-{[(3S)-3-(dimethylamino)pyrrolidin-1-yl]carbonyl}phenyl)-3-{4-[4-morpholin- [Example 517]	1.06 nM	7	3.4	18.5	–	–	–	–	–
CNC(=O)c1ccc(NC(=O)Nc2ccc(-c3nc(N4CCOCC4)nc(N4CCOCC4)n3)cc2)cc1 [Example 70, 4-(3-(4-(4,6-dimorpholino-1,3,5-triazin-2-yl)phenyl)ureido)-N-methylbenzamide]	0.7 nM	–	–	–	24	–	–	–	–
O=C(Nc1ccncc1)Nc1ccc(-c2nc(N3CCCCC3)nc(N3CC4CCC(C3)O4)n2)cc1 [Example 79, 1-(4-(4-(8-oxa-3-azabicyclo[3.2.1]octan-3-yl)-6-(piperidin-1-yl)-1,3,5-triazin-2-yl)phenyl)-3-(pyridin-4-yl)urea]	5.1 nM	–	773	193	–	320	–	–	–
O=C(Nc1ccncc1)Nc1ccc(-c2nc(N3CCCC3)nc(N3CC4CCC(C3)O4)n2)cc1 [Example 80, 1-(4-(4-(8-oxa-3-azabicyclo[3.2.1]octan-3-yl)-6-(pyrrolidin-1-yl)-1,3,5-triazin-2-yl)phenyl)-3-(pyridin-4-yl)urea]	7.15 nM	–	851	2120	–	320	–	–	–
O=C(Nc1ccc(C(=O)NCCN2CCCCC2)cc1)Nc1ccc(-c2nc(N3CCOCC3)nc(N3CCOCC3)n2)cc1 [Example 151, 4-({[4-(4,6-dimorpholin-4-yl-1,3,5-triazin-2-yl)phenyl]carbamoyl}amino)-N-(2-piperidin-1-ylethyl)benzamide]	7 nM	–	0.6	8120	–	14	–	–	–
CN(C)C1CCN(C(=O)c2ccc(NC(=O)Nc3ccc(-c4nc(N5CCOCC5)nc(N5CCOCC5)n4)cc3)cc2)C1 (centres unmarked) [Example 167, 1-(4-{[3-(dimethylamino)pyrrolidin-1-yl]carbonyl}phenyl)-3-[4-(4,6-dimorpholin-4-yl-1,3,5-triazin-2-yl)phenyl]urea]	0.68 nM	–	0.8	–	–	10	–	–	–
CCCCc1nc(-c2ccc(NC(=O)Nc3ccc(C(=O)N(C)CCN(C)C)cc3)cc2)nc(N2CCOCC2)n1 [Example 198, 4-({[4-(4-butyl-6-morpholin-4-yl-1,3,5-triazin-2-yl)phenyl]carbamoyl}amino)-N-[2-(dimethylamino)ethyl]-N-methylbenzamide]	2 nM	–	2	33	–	43	–	–	–
CCc1nc(-c2ccc(NC(=O)Nc3ccc(C(=O)Nc4ccc(N5CCN(C)CC5)cc4)cc3)cc2)nc(N2CCOCC2)n1 [Example 251, 4-({[4-(4-ethyl-6-morpholin-4-yl-1,3,5-triazin-2-yl)phenyl]carbamoyl}amino)-N-[4-(4-methylpiperazin-1-yl)phenyl]benzamide]	6 nM	–	2	21	–	65	–	–	–
CC(C)c1nc(-c2ccc(NC(=O)Nc3ccc(C(=O)N4CCN(C)CC4)cc3)cc2)nc(N2CCOCC2)n1 [Example 304, 1-{4-[4-(1-methylethyl)-6-morpholin-4-yl-1,3,5-triazin-2-yl]phenyl}-3-{4-[(4-methylpiperazin-1-yl)carbonyl]phenyl}urea]	2.5 nM and 4.5 nM	–	2	–	–	39.3	39.3	1.1	–
CN(C)C1CCN(C(=O)c2ccc(NC(=O)Nc3ccc(-c4nc(-c5cccs5)nc(N5CCOCC5)n4)cc3)cc2)CC1 [Example 568, 1-(4-{[4-(dimethylamino)piperidin-1-yl]carbonyl}phenyl)-3-{4-[4-morpholin-4-yl-6-(2-thienyl)-1,3,5-triazin-2-yl]phenyl}urea]	10 nM	–	3.5	–	–	–	107	–	–
O=C(Nc1ccc(-c2nc(N3CCOCC3)nc(N3CC4CCC3CO4)n2)cc1)Nc1cc[nH]n1 (centres unmarked) [Example 809, 1-{4-[4-morpholin-4-yl-6-(2-oxa-5-azabicyclo[2.2.2]oct-5-yl)-1,3,5-triazin-2-yl]phenyl}-3-(1H-pyrazol-3-yl)urea]	67 nM	–	395	2190	–	–	–	–	–
O=C(Nc1ccncc1)Nc1ccc(-c2nc(N3CCOCC3)nc(N3C4COCC3[C@H](O)C4)n2)cc1 (stereo partly drawn) [Example 820, 1-(4-{4-[(6R)-6-hydroxy-3-oxa-8-azabicyclo[3.2.1]oct-8-yl]-6-morpholin-4-yl-1,3,5-triazin-2-yl}phenyl)-3-pyridin-4-ylurea]	0.515 nM	–	6.1	67	–	–	–	–	–
O=C(Nc1ccncc1)Nc1ccc(-c2nc(N3CCOCC3)nc(N3C4COCC3[C@H](OCc3ccccc3)C4)n2)cc1 (stereo partly drawn) [Example 821, 1-(4-{4-[(6R)-6-(benzyloxy)-3-oxa-8-azabicyclo[3.2.1]oct-8-yl]-6-morpholin-4-yl-1,3,5-triazin-2-yl}phenyl)-3-pyridin-4-ylurea]	3.4 nM	–	9.3	58.3	–	–	–	–	–
O=C(Nc1ccc(C(=O)N2CCS(=O)(=O)CC2)cc1)Nc1ccc(-c2nc(N3CCOCC3)nc(N3C4CCC3COC4)n2)cc1 [Example 822, 1-{4-[(1,1-dioxidothiomorpholin-4-yl)carbonyl]phenyl}-3-{4-[4-morpholin-4-yl-6-(3-oxa-8-azabicyclo[3.2.1]oct-8-yl)-1,3,5-triazin-2-yl]phenyl}urea]	0.335 nM	–	3	31.5	–	–	–	–	–
CN(C)[C@@H]1CCN(C(=O)c2ccc(NC(=O)Nc3ccc(-c4nc(N5CCOCC5)nc(N5C6CCC5COC6)n4)cc3)cc2)C1 [Example 825, 1-(4-{[(3R)-3-(dimethylamino)pyrrolidin-1-yl]carbonyl}phenyl)-3-{4-[4-morpholin-4-yl-6-(3-oxa-8-azabicyclo[3.2.1]oct-8-yl)-1,3,5-triazin-2-yl]phenyl}urea]	185 nM	–	2	13	–	–	–	–	2.05
C[C@H]1COCCN1c1nc(-c2ccc(NC(=O)Nc3ccncc3)cc2)nc(N2C3CCC2COC3)n1 [Example 829, 1-(4-{4-[(3S)-3-methylmorpholin-4-yl]-6-(3-oxa-8-azabicyclo[3.2.1]oct-8-yl)-1,3,5-triazin-2-yl}phenyl)-3-pyridin-4-ylurea]	520 nM	–	10.5	188	–	–	–	–	–
C[C@H]1COCCN1c1nc(-c2ccc(NC(=O)Nc3ccc(C(=O)N(C)CCN(C)C)cc3)cc2)nc(N2C3CCC2COC3)n1 [Example 831, N-[2-(dimethylamino)ethyl]-N-methyl-4-{[(4-{4-[(3S)-3-methylmorpholin-4-yl]-6-(3-oxa-8-azabicyclo[3.2.1]oct-8-yl)-1,3,5-triazin-2-yl}phenyl)carbamoyl]amino}benzamide]	265 nM	–	3.3	87.5	–	–	–	–	–
C[C@H]1COCCN1c1nc(-c2ccc(NC(=O)Nc3ccc(C(=O)O)cc3)cc2)nc(N2C3CCC2COC3)n1 [Example 832, 4-{[(4-{4-[(3S)-3-methylmorpholin-4-yl]-6-(3-oxa-8-azabicyclo[3.2.1]oct-8-yl)-1,3,5-triazin-2-yl}phenyl)carbamoyl]amino}benzoic acid]	165 nM	–	61.5	342	–	–	–	–	–
C[C@H]1COCCN1c1nc(-c2ccc(NC(=O)Nc3ccc(C(=O)N4CC[C@@H](N(C)C)C4)cc3)cc2)nc(N2C3CCC2COC3)n1 [Example 833, 1-(4-{[(3R)-3-(dimethylamino)pyrrolidin-1-yl]carbonyl}phenyl)-3-(4-{4-[(3S)-3-methylmorpholin-4-yl]-6-(3-oxa-8-azabicyclo[3.2.1]oct-8-yl)-1,3,5-triazin-2-yl}phenyl)urea]	185 nM	–	5.6	81.5	–	–	–	–	–
C[C@H]1COCCN1c1nc(-c2ccc(NC(=O)Nc3ccc(C(=O)N4CC[C@H](N(C)C)C4)cc3)cc2)nc(N2C3CCC2COC3)n1 [Example 834, 1-(4-{[(3S)-3-(dimethylamino)pyrrolidin-1-yl]carbonyl}phenyl)-3-(4-{4-[(3S)-3-methylmorpholin-4-yl]-6-(3-oxa-8-azabicyclo[3.2.1]oct-8-yl)-1,3,5-triazin-2-yl}phenyl)urea]	680 nM	–	4.8	86.5	–	–	–	–	–
CCN1CCN(C(=O)c2ccc(NC(=O)Nc3ccc(-c4nc(N5C6CCC5COC6)nc(N5CCOC[C@@H]5C)n4)cc3)cc2)CC1 [Example 836, 1-{4-[(4-ethylpiperazin-1-yl)carbonyl]phenyl}-3-(4-{4-[(3S)-3-methylmorpholin-4-yl]-6-(3-oxa-8-azabicyclo[3.2.1]oct-8-yl)-1,3,5-triazin-2-yl}phenyl)urea]	665 nM	–	5.1	41	–	–	–	–	–
CN1CCN(C(=O)c2ccc(NC(=O)Nc3ccc(-c4nc(N5CCOCC5)nc(N5C6CCC5COC6)n4)cc3)cc2)CC1(C)C [Example 837, 1-{4-[4-(morpholin-4-yl)-6-(3-oxa-8-azabicyclo[3.2.1]oct-8-yl)-1,3,5-triazin-2-yl]phenyl}-3-{4-[(3,3,4-trimethylpiperazin-1-yl)carbonyl]phenyl}urea]	515 nM	–	3.7	19.5	–	–	–	–	–
N-[2-(dimethylamino)ethyl]-N-methyl-4-[({4-[4-morpholin-4-yl-6-(tetrahydro-2H-pyran-4-yl)-1,3,5-triazin-2-yl]phenyl}carbamoyl)amino]benzamide [Example 524]	0.26 nM	–	0.8	10	–	–	–	–	–
